Data set [1] deals with T1, SaroL-1 (Salpingoeca rosetta, UniProt F2UID9).
T1 construct: gene PTSG_08235; monomeric in solution
The data set can be described thus: Inhibition of SaroL-1 (217 nM) induced hemolysis of rabbit erythrocytes after 1 h pre-incubation of lectin with sugar at RT, then 1-2 h at 37 °C, absorbance of supernatant at 540 nm. The format is cell-based. To be noted: n = 2. On the procedure:
Hemolytic assay (HA) and inhibition of hemolytic activity (IHA)
(§1) Both HA and IHA assays were performed in U-shaped 96-well microtiter plates. In both cases, a control negative experiment was performed with Buffer A added to erythrocyte solution (2% final concentration), and the resulting value was subtracted from all data.
(§2) IHA was performed in U-shaped 96-well microtiter plates. […] 4% rabbit erythrocytes were added to the mixture in a 1:1 ratio and incubated for 1–2 h at 37 °C. The samples were centrifuged, 2600 × g for 15 min at RT, and the absorbance of the supernatant was measured at 540 nm by a Tecan reader.

The target in data set [2] is T1, SaroL-1. The data set can be described thus: Isothermal titration calorimetry (MicroCal iTC200) at 25 °C in 20 mM Tris/HCl pH 7.5, 100 mM NaCl, ligand titrated into SaroL-1, one-site model with stoichiometry N fixed to 3. It is filed as binding. On the procedure:
Isothermal Titration Calorimetry (ITC)
ITC experiments were performed with MicroCaliTC200 (Malvern Panalytical). Experiments were carried out at 25 °C ± 0.1 °C. SaroL-1 and ligands samples were prepared in Buffer A. The ITC cell contained SaroL-1 in a concentration range from 0.05 mM to 0.16 mM. The syringe contained the ligand solutions in a concentration from 10 to 50 mM. 2 μL of ligands solutions were injected into the sample cell at intervals of 120 s while stirring at 750 rpm. Integrated heat effects were analysed by nonlinear regression using one site binding model (MicroCal PEAQ-ITC Analysis software). The experimental data were fitted to a theoretical curve, which gave the dissociation constant (Kd) and the enthalpy of binding (∆H).

Data set [3] concerns the target T2, hemolytic activity of SaroL-1 on rabbit erythrocytes (Salpingoeca rosetta, UniProt F2UID9).
T2 sequence (F2UID9 1-329): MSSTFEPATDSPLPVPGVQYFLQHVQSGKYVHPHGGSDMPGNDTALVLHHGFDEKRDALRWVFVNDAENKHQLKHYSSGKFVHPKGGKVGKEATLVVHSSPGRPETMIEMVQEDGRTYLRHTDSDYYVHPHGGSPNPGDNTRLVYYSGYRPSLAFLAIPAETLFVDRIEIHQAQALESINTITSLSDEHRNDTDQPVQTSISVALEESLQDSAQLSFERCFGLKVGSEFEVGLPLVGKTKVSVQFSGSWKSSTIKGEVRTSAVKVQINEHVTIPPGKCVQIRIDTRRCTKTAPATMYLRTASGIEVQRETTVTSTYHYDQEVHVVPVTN
Put plainly: Inhibition of hemolytic activity (IHA) of SaroL-1 by carbohydrates. To be noted: for inhibition: SaroL-1 217 nM, read-out: Mean % inhibition of hemolysis. It is filed as cell-based. On the procedure: as §1, §2

The subject of another data set is rabbit erythrocytes. Put plainly: Hemolytic assay (HA). It is filed as cell-based. On the procedure:
as §1
SaroL-1 with an initial concentration of 27 μM was diluted by serial 2-fold dilution in Buffer A. Rabbit erythrocytes were purchased from Atlantis France and used without further washing. The erythrocytes were diluted to a 4% solution in 150 mM NaCl. Protein solution and rabbit erythrocytes were mixed together in a 1:1 ratio and incubated for 1 h at 37 °C. After the samples were centrifuged, 2600 × g for 15 min at RT and the absorbance of the supernatant was measured at 540 nm by a Tecan reader.

Data set [4] can be described thus: Confocal imaging of SaroL-1 binding to FSL-B GUVs. The settings on record: 200 nM SaroL-1, FSL-B GUVs. From the text: GUVs were composed of 1,2-dioleoyl-sn-glycero-3-phosphocholine (DOPC), cholesterol (both AvantiPolar Lipids, United States), Atto 647 N 1,2-dioleoyl-sn-glycero-3-phosphoethanolamine (DOPE; Sigma-Aldrich), and one of the following glycolipids at a molar ratio of 64.7:30:0.3:5. The glycolipids are globotriaosylceramide (Gb3, Matreya), FSL-Gb3 (Function-Spacer-Lipid with globotriaosyl saccharide), and corresponding FSL-isoGb3 (Function-Spacer-Lipid with iso-globotriaosyl saccharide) synthetized as previously described[84],[85], FSL-A(tri) (Function-Spacer-Lipid with blood group A trisaccharide; Sigma-Aldrich), FSL-B(tri) (Function-Spacer-Lipid with blood group B trisaccharide; Sigma-Aldrich) or lactosylceramide (LC, Sigma-Aldrich).
GUVs were prepared by the electroformation method as earlier described. Briefly, lipids dissolved in chloroform of a total concentration of 0.5 mg/mL were spread on indium tin oxid-covered (ITO) glass slides and dried in a vacuum for at least 1 h or overnight. […]
Samples of GUVs and SaroL-1 were imaged using a confocal fluorescence microscope (Nikon Eclipse Ti-E inverted microscope equipped with Nikon A1R confocal laser scanning system, 60x oil immersion objective, NA = 1.49 and four laser lines: 405 nm, 488 nm, 561 nm, and 640 nm). […]

A word on the IC50: it is the concentration that gives 50% inhibition. Low values mean higher potency, high ones lower potency. In general, Kd refers to the free concentration of one partner at which half of the binding sites on the other are occupied at equilibrium, for simple one-to-one binding. Low readings indicate tighter binding, high ones weaker binding. For orientation: inhibition means the change of the read-out against control, counted positive when it falls.

Where two headings read alike, the source gives them in different places.

At SaroL-1 [1], `O=[N+]([O-])c1ccc(O[C@H]2O[C@H](CO)[C@H](O)[C@H](O)[C@H]2O)cc1` [PNPG, p-nitrophenyl-α-D-galactopyranoside] returned an IC50 of 2.9 mM. At SaroL-1 [2], this molecule came in with a Kd of 1.01 mM. For the same molecule, the “inhibition of hemolysis (in words)” value in data set [3] (10 mM carbohydrate) is “complete inhibition”. Further, the inhibition in data set [3] (sugar 0.003 mM) was found to be 8.15%; in data set [3] (sugar 0.006 mM), 10.7%; in data set [3] (sugar 0.0125 mM) it was 12.1%; in data set [3] (sugar 0.025 mM), 9.06%; in data set [3] (sugar 0.05 mM) it was 3.85%; in data set [3] (sugar 0.1 mM), 3.39%. For the same molecule, the inhibition was 1.44% in data set [3] (sugar 0.2 mM); 2.69% in data set [3] (sugar 0.4 mM); 8.59% in data set [3] (sugar 0.8 mM); 24.5% in data set [3] (sugar 1.6 mM); 55.9% in data set [3] (sugar 3.125 mM); 90.5% in data set [3] (sugar 6.25 mM). Moreover, the inhibition in data set [3] (sugar 12.5 mM), in data set [3] (sugar 25 mM) and in data set [3] (sugar 50 mM) was 100% each time.

B1: SaroL-1: Recombinant pore-forming lectin of Salpingoeca rosetta (UniProt F2UID9, 329 amino acids) with β-trefoil and aerolysin-like domains (protein)
chain: MSSTFEPATDSPLPVPGVQYFLQHVQSGKYVHPHGGSDMPGNDTALVLHHGFDEKRDALRWVFVNDAENKHQLKHYSSGKFVHPKGGKVGKEATLVVHSSPGRPETMIEMVQEDGRTYLRHTDSDYYVHPHGGSPNPGDNTRLVYYSGYRPSLAFLAIPAETLFVDRIEIHQAQALESINTITSLSDEHRNDTDQPVQTSISVALEESLQDSAQLSFERCFGLKVGSEFEVGLPLVGKTKVSVQFSGSWKSSTIKGEVRTSAVKVQINEHVTIPPGKCVQIRIDTRRCTKTAPATMYLRTASGIEVQRETTVTSTYHYDQEVHVVPVTN
modifications: left off: His6, N-terminal, state not stated
notes: Recombinant pore-forming lectin of Salpingoeca rosetta (UniProt F2UID9, 329 amino acids) with β-trefoil and aerolysin-like domains
For B1, the “Hemolysis MEAN %” value is -2.217% in the data set on rabbit erythrocytes (SaroL-1 7 nM); -0.8961% in the data set on rabbit erythrocytes (SaroL-1 14 nM); -0.5487% in the data set with rabbit erythrocytes (SaroL-1 27 nM); 5.667% in the data set on rabbit erythrocytes (SaroL-1 55 nM); 24.3716% in the data set on rabbit erythrocytes (SaroL-1 110 nM); 59.5625% in the data set with rabbit erythrocytes (SaroL-1 217 nM). The “Hemolysis MEAN %” value was 85.1119% in the data set with rabbit erythrocytes (SaroL-1 423 nM); 95.7679% in the data set with rabbit erythrocytes (SaroL-1 843 nM); 93.9729% in the data set on rabbit erythrocytes (SaroL-1 1680 nM); 95.1481% in the data set on rabbit erythrocytes (SaroL-1 3400 nM); 95.7781% in the data set on rabbit erythrocytes (SaroL-1 6790 nM); 100% with rabbit erythrocytes (SaroL-1 13590 nM). Further, the “binding to GUVs” value in data set [4] was “No binding”.

The values above are taken from paper PMC9468336, “The choanoflagellate pore-forming lectin SaroL-1 punches holes in cancer cells by targeting the tumor-related glycosphingolipid Gb3” (Communications Biology, 2022).
